Tested on: S. cerevisiae tim23-1 mutant growth, luminescence
Assay: tim23-1 mutant yeast growth inhibitors, dose response, luminescence, uHTS hits (AID 493002);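 also: yeast grown roughly 22 hours at 25 °C before the luminescence read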

| SMILES | IC50 [µM] |
| --- | --- |
| CCCCCCSC1=C(C#N)C(c2ccccc2)CC(=O)N1 (configuration not stated) | 13.4 |
| Cc1nc(-c2ccc(NC(=O)C3CC3)cc2)cs1 | 20.2 |
| Cc1ccc(OCc2cc(C(=O)NC3CCCCC3)no2)cn1 | 15.4 |
| Cc1ccc(S(=O)(=O)N[C@@H](Cc2ccccc2)C(=O)CCl)cc1 | 2.18 |
| O=C(Nc1cc(-c2ccccc2)[nH]n1)c1ccccc1F | 20.2 |
| CC1CCN(c2ccc(-c3cccs3)nn2)CC1 | 6.21 |
| C[C@@]12C(=O)Nc3ccc(Cl)cc3C(=O)N1[C@H]1c3ccccc3OC[C@@H]1[C@@H]2c1ccccc1 | 3.38 |
| O=C(Nc1scc(-c2ccccc2)c1C(=O)O)c1ccccc1F | 12.2 |
| O=C(c1ccccc1)N1N=C(c2cccs2)CC1c1ccccc1O (configuration not stated) | 22.8 |
| O=C1NN=C(c2ccc(Br)cc2)CC1c1ccc(Cl)cc1 (configuration not stated) | 9.86 |
| Oc1ccc(N=Nc2ccccc2)cc1 | 15.3 |
| Cc1ccc(C(=O)Nc2nc(C(C)(C)C)cs2)s1 | 13.6 |
| Cc1cccc(C(=O)Oc2cccc3c(O)cccc23)c1 | 8.32 |
| CC1CCc2c(c3ccccc3n2C(=O)CCl)C1 (configuration not stated) | 3.68 |
| O=C(Nc1ccc(-c2cn3ccccc3n2)cc1)c1cccs1 | 2.92 |
| N#C/C(=C\c1ccc(Cl)cc1)C(=O)NC1CC1 | 7.09 |
| CCCCC(=O)Nc1ccc(NC(=O)c2cccs2)cn1 | 18.8 |
| C#CCOCCOCCOCCNc1nc(N2CCN(C(=O)CCCCCCCCCCNC(=O)[C@H](CCCCN)n3cc(C)nn3)CC2)nc(N2CCN(C(=O)CCCCCCCCCCNC(=O)[C@H](CCCN=C(N)N)n3cc(C[C@@H](C)CC)nn3)CC2)n1 | 10.4 |
| Cc1ccc(C(=O)C(C)OC(=O)c2cc3cc([N+](=O)[O-])ccc3oc2=O)cc1 (configuration not stated) | 14.9 |
| CCNc1nc(N)c(C(=O)C23CC4CC(CC(C4)C2)C3)s1 | 12.4 |
| N#C/C(=C/c1ccc(N2CCOCC2)o1)c1nc2ccccc2[nH]1 | 7.2 |

| SMILES | IC50 [µM] |
| --- | --- |
| COC(=O)N/N=C/c1ccc(-c2cc(Cl)cc(Cl)c2)o1 | 8.73 |
| CC1=CC(C)(C)N(C(=O)c2ccc(F)cc2)c2cc3c(cc21)OCO3 | 14.3 |
| O=C(NCc1cccnc1)/C(=C\c1ccc(-c2ccc(Br)cc2)o1)S(=O)(=O)c1ccccc1 | 4.25 |
| O=C(Nc1ncc([N+](=O)[O-])s1)c1ccc2c(c1)OCO2 | 17.6 |
| O=C(Nc1ccccc1N(C(=O)c1ccco1)S(=O)(=O)c1cccs1)c1ccco1 | 9.78 |
| COc1ccc(C(C[N+](=O)[O-])c2c(-c3ccccc3)cc3ccccn23)cc1 (configuration not stated) | 8.82 |
| Cc1occc1C(=O)N/N=C/C(Br)=C/c1ccccc1 | 9.06 |
| COc1cc2c(cc1OC)/C(=C/c1ccc(Cl)cc1)C(=O)OC2 | 8.86 |
| CC(C)CN1C(=O)c2ccc(NC(=O)c3ccco3)cc2C1=O | 20.2 |
| CCc1ccc(C2CC(=O)NC(SCC(=O)OC(C)C)=C2C#N)cc1 (configuration not stated) | 18.2 |
| Cc1ccc2occ(/C=N/NC(=O)c3ccncc3)c(=O)c2c1 | 21.6 |
| Cc1ccc(NC(=O)c2ccc(Cl)c(NC(=O)c3cccs3)c2)cc1 | 14.5 |
| Oc1c(Cl)cc(Cl)cc1CNc1nccs1 | 15.3 |
| CCOc1nc2ccccc2cc1C=O | 3.43 |
| COc1cc(C2CC(c3cccs3)=NN2C(=O)CCl)ccc1OC(F)F (configuration not stated) | 21.9 |
| Cc1ccc(O)c(C(=O)c2cnn(C(=O)Cc3csc(C)n3)c2)c1 | 12.4 |
| O=C1/C(=C/c2cccs2)Cc2ccccc21 | 16.1 |
| Cc1cccc(C(=O)OCC(=O)NC23CC4CC(CC(C4)C2)C3)c1O | 12.5 |
| Cc1ccc2c(c1)C(=O)N1[C@H]3c4ccccc4OC[C@@H]3[C@H](c3ccccc3)[C@]1(C)C(=O)N2 | 4.99 |
| O=C(Nc1ccc(-c2nc3ccccc3[nH]2)cc1)C1CCCO1 (configuration not stated) | 14.4 |
| COc1ccc(O)c(-c2cc(-c3cccs3)[nH]n2)c1 | 12.4 |

Source: PubChem BioAssay AID493002 (Sanford-Burnham Center for Chemical Genomics, 2010)
